Test [1] has as its system DDR proteins (BRCA1, RAD51, ATM). Description: Immunoblotting of DDR proteins in MDA-MB-231 cells. Type of test: cell-based, human. The note with it: MDA-MB-231, different doses, 48 h. As to the method: We next evaluated the effect of ZLC491 on the expression of DDR genes regulated by CDK12/13.
(A) Transcription level of DDR genes in MDA-MB-231 cells determined by RT-qPCR upon the treatment with vehicle or ZLC491 at different doses for 12 h, ROR1 was used as a negative control; (B) immunoblotting of DDR proteins in MDA-MB-231 cells after the treatment of ZLC491 at different doses for 48 h; (C) cell antiproliferative activity of ZLC491 in multiple TNBC cells as well as several noncancerous cells. Cells were treated with the compound for 5 days; (D,E) antiproliferative potency of cisplatin or olaparib alone or combined with ZLC491 at different doses in MDA-MB-231 cells for 5 days. Data are plotted using the percentage of absorbance relative to DMSO controls. (F) IC50 values and combination index (CI) in drug combination assay. In this model, CI scores estimate the interaction between the two drugs. If CI < 1, the drugs have a synergistic effect and if CI > 1, the drugs have an antagonistic effect. CI = 1 means the drugs have an additive effect. ^aThe drug combination in the table refers to the starting concentration of the two combined drugs, that would both go through serial dilution when treating cells. […]
(In general: Immunoblotting shows a protein as a band on a membrane.)

Another test addresses CDK12 (Homo sapiens, UniProt Q9NYV4). Put plainly: TMT-labeled quantitative proteomics in MDA-MB-231 cells. The test is classed as cell-based. Particulars: 8 h. Also on record: endogenous in cells; host or cells: MDA-MB-231. How it is done: The global proteomic selectivity of ZLC491 was investigated by using the tandem mass tag (TMT) labeled mass-spectrometry. […] CDK13 was not detected in either degrader treatment groups or DMSO control groups, likely due to its insufficient cellular expression for mass spectrometry detection.
Figure 5 ZLC491 degraded CDK12/13 with high selectivity. (A) Global proteomic analysis of ZLC491 in MDA-MB-231 cells after 8 h treatment of DMSO or 2 μM ZLC491; (B) mass-spec quantification of CDKs changes; (C) immunoblotting of target protein degradation in samples for proteomic analysis.
MDA-MB-231 cells were seeded at 8 × 10^5 cells in 6 cm dishes 24 h before treating with 2 μM ZLC491 or DMSO in quadruplicate or triplicate for 8 h. Cell lysates were prepared by washing cells twice with cold PBS and adding 180 μL lysis buffer (10 mM HEPES, pH 7.0, 1% (w/v) SDS, 2 mM MgCl·6H2O supplemented with 0.1% BeyoZonase (Beyotime)) per dish. Samples were quantified using a micro-BCA protein assay kit (Thermo Fisher Scientific) and 600 μg of each sample was processed and digested using the filter aided sample preparation (FASP) method followed by alkylation with iodoacetamide and digestion with trypsin. The samples were then desalted using Oasis HLB C18 SPE cartridge column (Waters, WAT094225). The peptides were lyophilized and reconstituted, then 25 μg peptides of each sample were labeled with TMT 11-plex Isobaric Label Reagent Set (Thermo Fisher Scientific) as the manufacturer’s instructions. After labeling, the peptides from the 11 samples were pooled together. […]
The fractions were analyzed sequentially on an Orbitrap Fusion Lumos Mass Spectrometer (Thermo Scientific) coupled to a NanoLC-1200 UHPLC system (Thermo Scientific) with C18 capillary column. […] MS3 precursor were fragmented by HCD and analyzed with Orbitrap at NCE 65, AGC 1E5, resolution 60000.
The raw MS data files for all 11 fractions were searched against the Uniprot-Human-Canonical database by Proteome Discoverer 2.0 for protein identification and TMT reporter ion quantitation. […]

Chain of CDK12 (Q9NYV4 whole entry): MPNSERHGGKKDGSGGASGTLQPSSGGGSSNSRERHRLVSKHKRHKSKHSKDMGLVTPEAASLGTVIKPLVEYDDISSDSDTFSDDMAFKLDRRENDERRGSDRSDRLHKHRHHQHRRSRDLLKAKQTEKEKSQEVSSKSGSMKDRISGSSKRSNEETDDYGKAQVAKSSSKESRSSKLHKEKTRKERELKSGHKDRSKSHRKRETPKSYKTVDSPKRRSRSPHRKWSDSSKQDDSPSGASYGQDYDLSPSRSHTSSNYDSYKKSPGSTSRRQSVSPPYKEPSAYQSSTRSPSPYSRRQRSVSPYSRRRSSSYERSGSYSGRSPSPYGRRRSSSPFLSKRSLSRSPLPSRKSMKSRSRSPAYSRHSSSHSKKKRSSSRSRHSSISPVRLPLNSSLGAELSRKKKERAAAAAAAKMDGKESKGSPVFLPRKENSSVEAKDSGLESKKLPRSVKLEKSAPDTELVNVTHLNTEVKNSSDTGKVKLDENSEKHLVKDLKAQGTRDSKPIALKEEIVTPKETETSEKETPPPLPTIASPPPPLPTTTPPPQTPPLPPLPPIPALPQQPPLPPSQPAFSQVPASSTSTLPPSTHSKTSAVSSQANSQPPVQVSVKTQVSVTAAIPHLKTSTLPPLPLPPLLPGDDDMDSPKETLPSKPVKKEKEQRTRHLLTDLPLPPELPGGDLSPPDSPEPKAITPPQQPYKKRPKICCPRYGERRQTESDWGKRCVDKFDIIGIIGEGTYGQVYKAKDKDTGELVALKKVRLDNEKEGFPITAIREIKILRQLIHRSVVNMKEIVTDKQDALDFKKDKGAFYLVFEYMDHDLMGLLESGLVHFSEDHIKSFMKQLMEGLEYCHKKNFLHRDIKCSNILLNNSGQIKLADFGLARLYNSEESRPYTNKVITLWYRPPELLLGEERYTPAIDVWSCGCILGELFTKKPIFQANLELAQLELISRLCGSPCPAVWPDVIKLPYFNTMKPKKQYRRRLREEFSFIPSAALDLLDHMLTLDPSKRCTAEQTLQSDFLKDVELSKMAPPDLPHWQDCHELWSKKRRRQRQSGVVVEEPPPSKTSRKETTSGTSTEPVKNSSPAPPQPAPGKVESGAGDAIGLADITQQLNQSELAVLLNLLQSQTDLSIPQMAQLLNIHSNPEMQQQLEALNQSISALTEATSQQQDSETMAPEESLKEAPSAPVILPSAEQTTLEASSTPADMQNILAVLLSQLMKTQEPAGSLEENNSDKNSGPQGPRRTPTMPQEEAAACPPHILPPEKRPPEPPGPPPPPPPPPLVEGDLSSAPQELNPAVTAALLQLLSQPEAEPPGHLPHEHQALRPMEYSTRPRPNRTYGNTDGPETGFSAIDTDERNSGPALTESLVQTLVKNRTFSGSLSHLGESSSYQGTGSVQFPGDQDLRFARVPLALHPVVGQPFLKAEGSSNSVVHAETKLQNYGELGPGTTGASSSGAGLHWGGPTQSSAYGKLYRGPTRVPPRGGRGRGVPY
Chain of CDK12 (O75909 whole entry partner): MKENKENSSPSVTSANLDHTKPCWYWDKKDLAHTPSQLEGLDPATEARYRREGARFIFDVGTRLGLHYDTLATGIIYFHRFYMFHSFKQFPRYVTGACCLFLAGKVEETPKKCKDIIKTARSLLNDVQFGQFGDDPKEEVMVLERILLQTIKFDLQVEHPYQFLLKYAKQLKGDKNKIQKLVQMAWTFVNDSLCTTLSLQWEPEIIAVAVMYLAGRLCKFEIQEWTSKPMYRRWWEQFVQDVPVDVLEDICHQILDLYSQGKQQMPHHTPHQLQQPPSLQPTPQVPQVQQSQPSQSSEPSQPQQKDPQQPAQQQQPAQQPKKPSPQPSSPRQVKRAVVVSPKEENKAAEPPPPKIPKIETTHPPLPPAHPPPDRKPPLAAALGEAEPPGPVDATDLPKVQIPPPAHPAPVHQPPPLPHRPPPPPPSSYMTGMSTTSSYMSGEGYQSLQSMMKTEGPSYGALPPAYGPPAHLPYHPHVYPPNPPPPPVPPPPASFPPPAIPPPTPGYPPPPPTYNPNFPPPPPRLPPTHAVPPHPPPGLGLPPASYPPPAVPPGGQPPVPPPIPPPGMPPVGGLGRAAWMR

For `N#Cc1ccc(N[C@H]2CC[C@H](N(C(=O)NCc3ccccc3)c3ccc(N4CCN(C5CCN(c6cc7c(cc6F)C(=O)N(C6CCC(=O)NC6=O)C7=O)CC5)CC4)cc3)CC2)nc1` (stereo partly shown) [ZLC491, 3-Benzyl-1-((1r,4r)-4-((5-cyanopyridin-2-yl)amino)cyclohexyl)-1-(4-(4-(1-(2-(2,6-dioxopiperidin-3-yl)-6-fluoro-1,3-dioxoisoindolin-5-yl)piperidin-4-yl)piperazin-1-yl)phenyl)urea], the “protein levels of DDR-relative proteins (BRCA1, RAD51, ATM)” value in test [1] is reported as “reduced”. In addition, the “FC_4-91 (CDK12)” value at CDK12 (2 μM ZLC491 vs DMSO) is 0.249. On CDK12 (2 μM), the “CDK12 level in global proteomics” value is “significantly decreased” and the “selectivity among CDKs in global proteomics” value is “selective for CDK12 over other CDKs”.
